# What was measured:
# [1] = biological target: SMc04259-CY (Sinorhizobium meliloti, UniProt Q92P64); assay: FRET biosensor SMc04259-CY, in vitro ligand titration; assay type: binding
# Experimental: (§1) Ligand-induced FRET ratio changes of purified FRET biosensor were screened using a LS55 luminescence spectrometer (PerkinElmer Instruments). Excitation (ex.) was at (λ/slit width) 433/10 nm (CFP) or 549/10 nm (OFP). Emission (em.) was measured at 475/10 nm (CFP), 527/10 nm (YFP), 573/10 nm (OFP) and 644/10 nm (RFP). To confirm that Aphrodite and mKate2 were properly folded their fluorescence was individually tested by direct excitation at 510/6 nm and 588/10 nm respectively.
# (§2) Affinity constants (Kd) of FRET biosensors with specific ligands were established using a monochromator microplate reader (Safire, Tecan, Switzerland; CFP ex.: (λ\bandwidth) 433/12 nm, em.: 475/12 nm; YFP em.: 527/12 nm. OFP ex.: 533/12 nm, em.: 563/12 nm; RFP em.: 615/12 nm). Proteins were diluted to give relative fluorescence units (RFU) in the detection range of 30,000 to 50,000 RFU at a gain of 90 to 100, and then were added to a dilution series (10^−3 to 10^−11 M) of ligand in Tris-HCl (pH 8.5, 50 mM). The change in relative emission intensities at 527/477 nm (YFP/CFP) or 615/563 nm (RFP/OFP) was used to determine Kd by fitting the titration curves to a single-site-binding isotherm: [drawing 1] with: R, ratio; Rapo, ratio without ligand; Rsat, ratio at saturation of ligand; n, number of equal binding sites; [L], ligand concentration. Non-linear regression was used to fit the curves using SigmaPlot 11 (Systat Software Inc.) (Hill equation, 4 Parameters, b = 1). All measurements were done in quadruplicate.
# [2] = test system: genes encoding the ABC-transporter (RL2376-9); details: cited from earlier work
# [3] = biological target: T1, RL2376-CY (Rhizobium leguminosarum, UniProt Q1MGQ3); assay: FRET biosensor RL2376-CY, in vitro ligand titration; assay type: binding
# T1 sequence (Q1MGQ3 24-320): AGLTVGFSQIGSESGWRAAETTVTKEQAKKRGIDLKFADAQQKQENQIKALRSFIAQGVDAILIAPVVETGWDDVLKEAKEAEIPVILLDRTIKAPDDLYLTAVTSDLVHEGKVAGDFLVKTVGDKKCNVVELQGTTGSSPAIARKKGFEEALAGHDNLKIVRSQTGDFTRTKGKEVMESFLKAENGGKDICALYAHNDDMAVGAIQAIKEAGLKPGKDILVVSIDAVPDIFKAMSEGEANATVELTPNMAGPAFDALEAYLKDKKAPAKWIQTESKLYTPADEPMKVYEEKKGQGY
# Experimental: as §1, §2
# [4] = biological target: SMc02324-CY (Sinorhizobium meliloti, UniProt Q92S11); assay: FRET biosensor SMc02324-CY, in vitro ligand titration; assay type: binding; details: for reaction of biosensor with compound (FRET) / Kd: SMc02324-CY; for Kd: pCYS (pLMB291), Tris-HCl pH 8.5
# SMc02324-CY, sequence (Q92S11 entry or part of it): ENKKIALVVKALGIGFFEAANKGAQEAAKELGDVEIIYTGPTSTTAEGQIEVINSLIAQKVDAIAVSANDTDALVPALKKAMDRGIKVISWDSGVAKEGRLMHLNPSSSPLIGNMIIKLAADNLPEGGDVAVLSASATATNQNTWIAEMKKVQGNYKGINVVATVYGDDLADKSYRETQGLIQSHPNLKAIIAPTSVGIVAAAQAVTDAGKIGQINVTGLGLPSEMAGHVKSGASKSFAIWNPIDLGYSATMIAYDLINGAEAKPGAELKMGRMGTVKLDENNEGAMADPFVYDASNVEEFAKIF
# Experimental: as §1, §2
# [5] = biological target: SMc02774-CY (Sinorhizobium meliloti, UniProt Q92TD7); assay: FRET biosensor SMc02774-CY, in vitro ligand titration; assay type: binding; details: for Kd: pCYS (pLMB292), Tris-HCl pH 8.5
# SMc02774-CY, sequence (Q92TD7 entry or part of it): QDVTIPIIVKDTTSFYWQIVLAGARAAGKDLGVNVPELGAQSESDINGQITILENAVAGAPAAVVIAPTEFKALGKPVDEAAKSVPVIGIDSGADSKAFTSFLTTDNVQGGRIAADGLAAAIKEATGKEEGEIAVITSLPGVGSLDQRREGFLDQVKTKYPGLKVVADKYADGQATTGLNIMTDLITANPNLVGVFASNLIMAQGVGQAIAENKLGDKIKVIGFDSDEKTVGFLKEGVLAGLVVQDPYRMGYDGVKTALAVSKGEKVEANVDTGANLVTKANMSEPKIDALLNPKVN
# Experimental: as §1, §2
# [6] = biological target: SMb20036-CY (Sinorhizobium meliloti, UniProt Q92XC3); assay: biochemical; assay type: binding; details: for change in FRET ratio on addition of compound: compounds similar in structure to D-quinic acid
# SMb20036-CY, sequence (Q92XC3 entry or part of it): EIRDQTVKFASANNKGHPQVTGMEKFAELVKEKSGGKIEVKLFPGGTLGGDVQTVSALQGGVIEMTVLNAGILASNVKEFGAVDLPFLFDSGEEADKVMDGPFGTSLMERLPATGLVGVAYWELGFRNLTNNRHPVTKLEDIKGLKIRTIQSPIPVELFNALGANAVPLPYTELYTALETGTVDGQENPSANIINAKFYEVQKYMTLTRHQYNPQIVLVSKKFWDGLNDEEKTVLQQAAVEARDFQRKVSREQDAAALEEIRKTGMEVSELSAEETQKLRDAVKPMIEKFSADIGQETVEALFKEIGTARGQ
# Experimental: as §1, §2
# [7] = test system: SMb20036 FBS-RO version; assay: FBS-RO version of SMb20036 biosensor, FRET ratio change on ligand; assay type: binding, Sinorhizobium meliloti; details: FBS-RO version (RFP/OFP) of SMb20036
# Experimental: as §1
# as §2, with “Non-linear regression was used to fit the curves using SigmaPlot 11 (Systat Software Inc.) (Hill equation, 4 Parameters, b = 1). All measurements were done in quadruplicate.” left out
# [8] = biological target: SMc02324-RO (Sinorhizobium meliloti, UniProt Q92S11); assay: FRET biosensor SMc02324-RO, in vitro ligand titration; assay type: binding; details: pROS (pLMB523), Tris-HCl pH 8.5
# SMc02324-RO, sequence (Q92S11 entry or part of it): as the sequence (Q92S11 entry or part of it) above
# Experimental: as §1
# as §2, with “Non-linear regression was used to fit the curves using SigmaPlot 11 (Systat Software Inc.) (Hill equation, 4 Parameters, b = 1). All measurements were done in quadruplicate.” left out
# [9] = biological target: T2, rcc03024-CY (DctP) (Rhodobacter capsulatus, UniProt P37735); assay: FRET biosensor rcc03024-CY, in vitro ligand titration; assay type: binding; details: for Kd: pCYS (pLMB414), Tris-HCl pH 8.5
# T2 construct: made in house; host or cells: E. coli Rosetta2
# T2 sequence (P37735 27-333): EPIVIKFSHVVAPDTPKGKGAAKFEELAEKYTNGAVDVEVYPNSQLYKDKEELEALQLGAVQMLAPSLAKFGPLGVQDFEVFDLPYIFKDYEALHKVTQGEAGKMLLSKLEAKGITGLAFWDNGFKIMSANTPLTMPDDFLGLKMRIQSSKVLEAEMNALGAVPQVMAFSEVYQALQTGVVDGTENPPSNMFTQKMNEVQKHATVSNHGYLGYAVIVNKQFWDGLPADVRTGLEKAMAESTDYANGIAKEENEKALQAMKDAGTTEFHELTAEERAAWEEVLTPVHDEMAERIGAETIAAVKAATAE
# Description: Ligand-induced FRET ratio changes of purified FRET biosensor were screened using a LS55 luminescence spectrometer (PerkinElmer Instruments).
# Non-linear regression was used to fit the curves using SigmaPlot 11 (Systat Software Inc.) (Hill equation, 4 Parameters, b = 1). All measurements were done in quadruplicate.
# [10] = biological target: T3, rcc03024-RO (Rhodobacter capsulatus, UniProt P37735); assay: rcc03024-RO, FRET ratio change on ligand; assay type: binding
# T3 construct: made in house; host or cells: E. coli Rosetta2
# T3 sequence (P37735 27-333): T2 sequence (P37735 27-333)
# Experimental: as §1
# as §2, with “Non-linear regression was used to fit the curves using SigmaPlot 11 (Systat Software Inc.) (Hill equation, 4 Parameters, b = 1). All measurements were done in quadruplicate.” left out
# [11] = test system: SMc04259-RO; assay: SMc04259-RO, FRET ratio change on ligand; assay type: binding, Sinorhizobium meliloti
# Experimental: as §1
# as §2, with “Non-linear regression was used to fit the curves using SigmaPlot 11 (Systat Software Inc.) (Hill equation, 4 Parameters, b = 1). All measurements were done in quadruplicate.” left out
# SMc04259-CY, sequence (Q92P64 entry or part of it): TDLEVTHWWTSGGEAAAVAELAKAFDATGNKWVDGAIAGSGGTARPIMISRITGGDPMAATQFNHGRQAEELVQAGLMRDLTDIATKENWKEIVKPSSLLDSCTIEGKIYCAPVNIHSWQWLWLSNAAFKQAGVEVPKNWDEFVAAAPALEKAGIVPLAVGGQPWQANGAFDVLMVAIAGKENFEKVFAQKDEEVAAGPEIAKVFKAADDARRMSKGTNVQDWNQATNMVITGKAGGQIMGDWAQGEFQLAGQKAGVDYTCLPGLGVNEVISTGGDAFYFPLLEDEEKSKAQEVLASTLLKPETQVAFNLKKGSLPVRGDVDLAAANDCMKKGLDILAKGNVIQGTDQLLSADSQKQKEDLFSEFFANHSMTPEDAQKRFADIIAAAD
compound,measurement,setting,value
OC[C@H]1O[C@@H](O[C@@H]2[C@@H](CO)OC(O)(CO)[C@H]2O)[C@H](O)[C@@H](O)[C@H]1O (mixture of isomers) [lactulose],change in FRET with compound,[1]; SMc04259-CY,no change in FRET
OC1OC[C@@H](O)[C@@H](O)[C@@H]1O (stereo partly drawn) [D-arabinose],Inducer of gene expression (fold change),"[2]; RL2376, Table 1",D-arabinose (3.6) fold
same,induction of genes RL2376-9 (fold),"[2]; microarray, compared with cells grown on glucose",up to 3.6 fold
same,change in FRET ratio on addition of compound,[3],no change in FRET ratio
C[C@H]1OC(O)[C@H](O)[C@@H](O)[C@H]1O (stereo partly drawn) [D-fucose],reaction of biosensor with compound (FRET),[4],did not react
same,reaction of biosensor with compound (FRET),[5]; SMc02774-CY,did not react
OC[C@@H](O)[C@@H]1OC(O)[C@H](O)[C@H]1O (stereo partly drawn) [D-galactofuranose],Kd,"[3]; hypothetical solution of pure D-galactofuranose, furanoses 7.7% of D-galactose in solution, read-out: estimated Kd for D-galactofuranose specifically",408 ± 131 nM
O=C(O)[C@]1(O)C[C@@H](O)[C@@H](O)[C@H](O)C1 [D-quinic acid],difference in the affinity for D-quinic acid compared with that for shikimic acid,[6],"> 15,000 fold"
same,Kd,"[6]; pCYS (pLMB229), Tris-HCl pH 8.5",5.9 nM
same,change in FRET ratio on binding ligand,[7],no change in FRET ratio
C[C@H](O)[C@@H](O)[C@@H](O)[C@H](O)C=O [L-fucose],Kd,[4],11000 nM
same,difference between the affinity of SMc02774-CY for L-fucose compared to its affinity for L-rhamnose,[5],three order-magnitude difference
same,Kd,[5]; SMc02774-CY,3.6 nM
same,Kd,[8],19000 nM
O=C(O)C[C@H](O)C(=O)O [L-malate],Kd,[9],70 nM
same,change in FRET ratio on binding ligand,[10],no change in FRET ratio
C[C@H](O)[C@H](O)[C@@H](O)[C@@H](O)C=O [L-rhamnose],difference in affinity of SMc02324 for L-rhamnose compared to L-fucose,[4],three order-magnitude difference
same,Kd,[4],7.3 nM
same,Kd,[5]; SMc02774-CY,1600 nM
same,Kd,[8],6.9 nM
CC(=O)N[C@H]1[C@H]([C@H](O)[C@H](O)CO)OC(O)(C(=O)O)C[C@@H]1O (stereo partly drawn) [N-acetyl-5-neuraminic acid],change in FRET ratio on addition of compound,[6],no change in FRET ratio
O=C(O)c1ccccc1 [benzoic acid],change in FRET ratio on addition of compound,[6],no change in FRET ratio
O=C[C@H](O)[C@@H](O)[C@H](O[C@@H]1O[C@H](CO)[C@@H](O)[C@H](O)[C@H]1O)[C@H](O)CO [cellobiose],Kd,[1],33 nM
same,change in FRET ratio on binding ligand,[11],no change in FRET ratio
O=C(O)CC(O)(CC(=O)O)C(=O)O [citrate],change in FRET ratio on addition of compound,[9],no change in FRET ratio
[2H]C(=O)C[C@H](O)[C@H](O)CO [deoxy-D-ribose],reaction of biosensor with compound (FRET),[4],did not react
OC[C@@H](O)[C@H](O)[C@H](O)[C@@H](O)CO [dulcitol],reaction of biosensor with compound (FRET),[4],did not react
OC[C@@H](O)[C@@H](O)CO [erythritol],reaction of biosensor with compound (FRET),[4],did not react
O=C(O)/C=C/C(=O)O [fumarate],ΔFRET on saturation (%),[9]; change in FRET ratio on ligand binding,−2.7±0.2%
same,Kd,[9],58 nM
